This note sets out measurements from US20250145589A1, “PYRIDINE DERIVATIVE AND USE THEREOF” (SICHUAN HUIYU PHARMACEUTICAL CO., LTD., priority 2021, published 2025).

For assay [1], the target named is PI3Kα (Homo sapiens (Human), UniProt P42336). The assay is described as follows: Inhibition of PI3Kα efficacy assay (ADP-Glo kinase assay). It counts as biochemical. The conditions noted are these: read-out: PI3Kα inhibitory activity (IC50). The method, then: Inhibition of PI3Kα Efficacy assay The ADP-Glo™ kinase assay was used to assess the inhibition of PI3Kα with our compounds. The utilized proteins and assay reagents were obtained from the ADP-Glo™ Kinase Assay Kit (Promega). Initially, a 2 mM stock solution of the test compound (dissolved in DMSO) was serially diluted in five-fold concentrations using DMSO to obtain eight working solutions 1 (200′). […] Subsequently, 2 μL of 2.5×PI and ATP solution mixture were added to each well, mixed, and incubated at RT for 60 minutes. Then, 5 μL of ADP-Glo (containing 10 mM MgCl2) reagent was added to each well, mixed, and incubated at RT for 40 minutes. Finally, 10 μL of the Kinase Detection Reagent was added to each well, mixed, and incubated at RT for 40 minutes. […] Data were analyzed using GraphPad Prism with log(inhibitor) vs. response—Variable Slope(four parameters) fitting calculations for […]. (Note: The negative control refers to the group without inhibitor, and the blank control refers to the group without enzyme.) The data were presented in Tables 1 to 4.
Sequence of PI3Kα (P42336 whole entry): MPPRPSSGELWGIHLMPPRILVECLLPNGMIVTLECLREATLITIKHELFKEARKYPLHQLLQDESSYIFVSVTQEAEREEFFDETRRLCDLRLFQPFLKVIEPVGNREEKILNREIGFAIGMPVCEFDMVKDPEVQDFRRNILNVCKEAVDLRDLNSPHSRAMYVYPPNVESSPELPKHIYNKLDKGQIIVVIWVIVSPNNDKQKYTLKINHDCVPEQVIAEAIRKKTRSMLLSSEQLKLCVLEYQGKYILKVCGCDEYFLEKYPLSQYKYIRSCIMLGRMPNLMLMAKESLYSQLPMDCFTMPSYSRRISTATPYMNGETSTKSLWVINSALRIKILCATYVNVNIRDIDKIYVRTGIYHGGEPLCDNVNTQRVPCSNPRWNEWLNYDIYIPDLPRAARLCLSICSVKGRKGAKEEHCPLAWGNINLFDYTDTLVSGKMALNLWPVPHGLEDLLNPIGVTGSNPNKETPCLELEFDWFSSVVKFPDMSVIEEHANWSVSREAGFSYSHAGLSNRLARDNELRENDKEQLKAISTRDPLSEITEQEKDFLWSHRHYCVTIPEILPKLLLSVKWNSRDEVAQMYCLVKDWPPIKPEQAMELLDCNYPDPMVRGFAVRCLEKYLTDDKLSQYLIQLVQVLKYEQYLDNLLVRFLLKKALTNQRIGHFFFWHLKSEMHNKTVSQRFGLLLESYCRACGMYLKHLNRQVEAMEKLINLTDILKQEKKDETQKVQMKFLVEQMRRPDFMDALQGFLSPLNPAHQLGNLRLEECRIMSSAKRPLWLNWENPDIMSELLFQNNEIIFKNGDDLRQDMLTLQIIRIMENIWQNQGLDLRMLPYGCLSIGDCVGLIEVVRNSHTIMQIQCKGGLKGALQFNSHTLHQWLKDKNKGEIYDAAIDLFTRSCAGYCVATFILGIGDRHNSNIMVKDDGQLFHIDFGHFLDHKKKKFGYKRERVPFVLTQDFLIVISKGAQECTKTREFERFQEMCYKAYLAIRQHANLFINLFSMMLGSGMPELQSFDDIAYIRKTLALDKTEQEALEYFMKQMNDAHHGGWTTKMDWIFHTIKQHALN
Sequence of PI3Kα (P27986 whole entry partner): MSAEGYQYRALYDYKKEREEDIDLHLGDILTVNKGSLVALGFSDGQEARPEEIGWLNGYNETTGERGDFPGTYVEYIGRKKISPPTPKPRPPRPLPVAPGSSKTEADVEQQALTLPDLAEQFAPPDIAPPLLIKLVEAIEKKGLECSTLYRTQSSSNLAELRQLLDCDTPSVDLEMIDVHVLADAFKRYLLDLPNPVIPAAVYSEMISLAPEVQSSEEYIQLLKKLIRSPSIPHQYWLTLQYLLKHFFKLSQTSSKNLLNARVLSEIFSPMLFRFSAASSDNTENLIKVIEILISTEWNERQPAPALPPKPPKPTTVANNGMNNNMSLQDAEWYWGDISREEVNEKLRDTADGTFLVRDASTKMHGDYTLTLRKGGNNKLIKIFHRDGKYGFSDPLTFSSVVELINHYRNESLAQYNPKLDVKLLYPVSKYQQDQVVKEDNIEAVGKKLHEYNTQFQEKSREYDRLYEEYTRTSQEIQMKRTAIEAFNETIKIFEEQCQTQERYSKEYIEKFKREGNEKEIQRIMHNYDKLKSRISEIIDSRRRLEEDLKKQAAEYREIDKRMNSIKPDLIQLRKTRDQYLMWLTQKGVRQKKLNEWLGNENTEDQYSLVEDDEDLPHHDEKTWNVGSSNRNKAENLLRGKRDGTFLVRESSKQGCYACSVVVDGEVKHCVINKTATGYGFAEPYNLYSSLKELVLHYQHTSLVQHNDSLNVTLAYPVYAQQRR
For orientation: ADP-Glo turns the ADP formed in a reaction into a luminescent signal.

The target in assay [2] is PI3Kδ (Homo sapiens (Human), UniProt O00329). The experiment in a line: Inhibition of PI3Kδ efficacy assay (ADP-Glo kinase assay). Format: biochemical. The conditions noted are these: read-out: PI3Kδ inhibitory activity (IC50). The method, then:
Test Example 2: Inhibition of PI3Kδ Efficacy assay The ADP-Glo™ kinase assay was used to assess the inhibition of PI3Kδ with our compounds. The utilized proteins and assay reagents were obtained from the ADP-Glo™ Kinase Assay Kit (Promega). Initially, a 2 mM stock solution of the test compound (dissolved in DMSO) was serially diluted in five-fold concentrations using DMSO to obtain eight working solutions 1 (200×) Subsequently, each of the eight working solutions 1 was further diluted in a 20-fold gradient by adding 5 μL into 95 μL of ddH2O, resulting in eight working solutions 2 (10×). […] Subsequently, 2 μL of 2.5×PI and ATP solution mixture were added to each well, mixed, and incubated at RT for 60 minutes. Then, 5 μL of ADP-Glo (containing 10 mM MgCl2) reagent was added to each well, mixed, and incubated at RT for 40 minutes. Finally, 10 μL of the Kinase Detection Reagent was added to each well, mixed, and incubated at RT for 40 minutes. Luminescence values were recorded using a multi-mode microplate reader with luminescence channel settings, and the inhibitory rate was calculated using the following formula: [formula] Data were analyzed using GraphPad Prism with log(inhibitor) vs. response—Variable Slope(four parameters) fitting calculations for IC50 values.

Assay [3] relates to NCI-H358 cells (KRAS G12C mutant). The assay is described as follows: NCI-H358 cell proliferation inhibition (CellTiter-Glo). It counts as cell-based. The conditions noted are these: Homo sapiens, NCI-H358, 72 h; H358 cells (G12C mutation), 3 days, Table 6; read-out: NCI-H358 (IC50). The method, then:
The CellTiter-Glo®, assay was used to detect the number of viable cells, in order to evaluate the anti-proliferation efficacy of compounds. […] The compounds were serially diluted 5-fold in DMSO to obtain 8 concentrations, and then further diluted with RPMI-640 (10% FBS) cell culture medium to obtain the working solutions (5′), 20 μL of each working solution was added to the cell culture supernatant in each well, and the plate was further incubated for 3 days at 37° C. with 5% CO2. The plate was then equilibrated with CellTiter-Glo® reagent at room temperature (25° C.) for 10-30 minutes. After aspirating 50 μL of the medium, 50 μL of CellTiter-Glo® reagent was added. The cells were thoroughly mixed with the CellTiter-Glo® reagent using a microplate shaker for 2 minutes, and then incubated at room temperature for 10 minutes. The 96-well plate was placed in a multi-mode microplate reader to record the luminescence values (RLU). The inhibition rate was calculated through the following equation: [formula] Data were analyzed using GraphPad Prism for IC50 values (Note: The negative control refers to the group without inhibitor).
In general terms: ATP-based viability assays read luminescence as a measure of living cells.

As usually defined, the IC50 is the midpoint of a concentration-inhibition curve.

Like-named read-outs stand apart in the source and are kept apart here. A value given as a limit tells only on which side of the number the result lay.

Sequence of PI3Kδ (O00329 whole entry): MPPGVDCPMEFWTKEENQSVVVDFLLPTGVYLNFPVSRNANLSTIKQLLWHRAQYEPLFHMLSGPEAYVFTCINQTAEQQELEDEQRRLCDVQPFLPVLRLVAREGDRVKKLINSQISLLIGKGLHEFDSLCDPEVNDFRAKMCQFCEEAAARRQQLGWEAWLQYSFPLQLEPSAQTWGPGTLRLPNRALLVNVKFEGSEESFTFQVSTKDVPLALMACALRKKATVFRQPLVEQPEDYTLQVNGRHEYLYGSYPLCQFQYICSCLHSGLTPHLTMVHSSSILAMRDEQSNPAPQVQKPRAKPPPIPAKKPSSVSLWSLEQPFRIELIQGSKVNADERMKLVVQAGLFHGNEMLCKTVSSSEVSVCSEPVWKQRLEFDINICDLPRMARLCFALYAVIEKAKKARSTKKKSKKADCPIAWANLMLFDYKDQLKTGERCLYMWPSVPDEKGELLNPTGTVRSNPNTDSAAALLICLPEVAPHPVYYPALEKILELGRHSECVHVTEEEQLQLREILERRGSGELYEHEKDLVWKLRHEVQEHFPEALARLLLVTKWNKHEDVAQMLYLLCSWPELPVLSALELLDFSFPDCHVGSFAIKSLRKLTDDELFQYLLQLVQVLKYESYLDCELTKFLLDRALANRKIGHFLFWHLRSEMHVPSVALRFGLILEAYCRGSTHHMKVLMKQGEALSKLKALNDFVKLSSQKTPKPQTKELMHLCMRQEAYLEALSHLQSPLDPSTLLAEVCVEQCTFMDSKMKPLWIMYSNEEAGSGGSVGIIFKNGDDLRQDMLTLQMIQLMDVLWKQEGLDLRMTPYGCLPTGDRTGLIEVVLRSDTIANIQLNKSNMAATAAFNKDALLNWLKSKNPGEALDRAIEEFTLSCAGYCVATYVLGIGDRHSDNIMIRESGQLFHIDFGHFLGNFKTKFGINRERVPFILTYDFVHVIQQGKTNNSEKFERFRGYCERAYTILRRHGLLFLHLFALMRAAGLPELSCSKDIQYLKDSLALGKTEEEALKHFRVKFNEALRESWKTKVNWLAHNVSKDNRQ
Sequence of PI3Kδ (P27986 whole entry partner): as the sequence (P27986 whole entry partner) above

Regarding `C=C(F)C(=O)N1CC(N2CCN(c3ncnc4ccc(-c5cnc(OC)c(NS(=O)(=O)c6ccc(F)cc6F)c5)cc34)CC2)C1` [Example 57, 2,4-difluoro-N-(5-(4-(4-(1-(2-fluoroacryloyl)azetidin-3-yl)piperazin-1-yl)quinazolin-6-yl)-2-methoxypyridin-3-yl)benzenesulfon-amide], the results for the half-inhibitory concentration (IC50) in assay [1] (Table 2), in assay [2] (Table 2) and in assay [3] were 1.9 nM, 33.4 nM and 29.9 nM, respectively.

`CNc1ncc(-c2ccc3ncnc(N4CCN(C(=O)/C=C/C(C)=O)CC4)c3c2)cc1NS(=O)(=O)c1ccc(F)cc1F` [Example 105, (E)-2,4-difluoro-N-(2-(methylamino)-5-(4-(4-(4-oxopent-2-enoyl)piperazin-1-yl)quinazolin-6-yl)pyridin-3-yl)benzenesulfonamide]: the IC50 was determined as 8.6 nM in assay [1] (Table 2) and 38.5 nM in assay [2] (Table 2).

Take `C=CC(=O)N1CCN(c2ncnc3ccc(-c4cnc(OC)c(NS(=O)(=O)c5ccc(F)cn5)c4)cc23)CC1` [Example 119, N-(5-(4-(4-acryloylpiperazin-1-yl)quinazolin-6-yl)-2-methoxypyridin-3-yl)-5-fluoropyridine-2-sulfonamide]: the figures for the concentration for half-maximal inhibition (IC50) in assay [1] (Table 2), in assay [2] (Table 2) and in assay [3] were 2.8 nM, 11.8 nM and 67.9 nM, respectively.

Consider `C=C(F)C(=O)N1CC2(CCN(c3ncnc4ccc(-c5cnc(OC)c(NS(=O)(=O)c6ccc(F)cc6F)c5)cc34)CC2)C1` [Example 19, 2,4-difluoro-N-(5-(4-(2-(2-fluoroacryloyl)-2,7-diazaspiro[3.5]nonan-7-yl)quinazolin-6-yl)-2-methoxypyridin-3-yl)benzenesulfonamide], for which the IC50 in assay [1] (Table 1) was 4.7 nM; in assay [2] (Table 1) it was 57.8 nM; in assay [3], 22 nM.

Take `COc1ncc(-c2ccc3ncnc(N4CCN(C(=O)/C=C/C(F)(F)F)CC4)c3c2)cc1NS(=O)(=O)c1c(F)cccc1F` [Example 44, (E)-2,6-difluoro-N-(2-methoxy-5-(4-(4-(4,4,4-trifluorobut-2-enoyl)piperazin-1-yl)quinazolin-6-yl)pyridin-3-yl) benzenesulfonamide]: the figures for the IC50 in assay [1] (Table 2), in assay [2] (Table 2) and in assay [3] were 4.3 nM, 17.5 nM and 41.6 nM, respectively.

On to `COc1ncc(-c2ccc3ncnc(N4CCN(C(=O)/C=C/P(C)(C)=O)CC4)c3c2)cc1NS(=O)(=O)c1ccc(F)cc1F` [Example 76, (E)-N-(5-(4-(4-(3-(dimethylphosphoryl)acryloyl)piperazin-1-yl)quinazolin-6-yl)-2-methoxypyridin-3-yl)-2,4-difluorobenzenesulfonamide], for which the IC50 was 7.5 nM in assay [1] (Table 2), 25.3 nM in assay [2] (Table 2) and 3420 nM in assay [3].

For the molecule `C=CC(=O)N1CCN(c2ncnc3ccc(-c4cnc(OC)c(N(C)S(=O)(=O)c5c(F)cccc5F)c4)cc23)CC1` [Example 82, N-(5-(4-(4-acryloylpiperazin-1-yl)quinazolin-6-yl)-2-methoxypyridin-3-yl)-2,6-difluoro-N-methylbenzenesulfonamide], the IC50 in assay [1] (Table 2) was 89.9 nM; in assay [2] (Table 2), 75.6 nM.

`CC(=O)/C=C/C(=O)N1CCN(c2ncnc3ccc(-c4cncc(NS(=O)(=O)c5ccc(F)cc5F)c4)cc23)CC1` [Example 28, (E)-2,4-difluoro-N-(5-(4-(4-(4-oxopent-2-enoyl)piperazin-1-yl)quinazolin-6-yl)pyridin-3-yl)benzenesulfonamide]: the IC50 came to 1.8 nM in assay [1] (Table 1) and 49.7 nM in assay [2] (Table 1).

On to `C=CC(=O)N1CCN(c2ncnc3ccc(-c4cncc(NS(=O)(=O)c5ccc(F)cc5F)c4)cc23)CC1` [Example 27, N-(5-(4-(4-acryloylpiperazin-1-yl)quinazolin-6-yl)pyridin-3-yl)-2,4-difluorobenzenesulfonamide], for which the concentration for half-maximal inhibition (IC50) in assay [1] (Table 1) turned out to be 1.8 nM; in assay [2] (Table 1), 27.3 nM.

With `C=CC(=O)N1CCN(c2ncnc3ccc(-c4cnc(OC)c(NCc5ccc(F)cc5F)c4)cc23)CC1` [Example 126, 1-(4-(6-(5-((2,4-difluorobenzyl)amino)-6-methoxypyridin-3-yl)quinazolin-4-yl)piperazin-1-yl)prop-2-en-1-one], the results for the IC50 in assay [1] (Table 2) and in assay [2] (Table 2) were 131 nM and 52.7 nM, respectively.

With `C=CC(=O)N1CCN(c2nc(N)nc3ccc(-c4cnc(OC)c(NS(=O)(=O)c5ccc(F)cc5F)c4)cc23)CC1` [Example 30, N-(5-(4-(4-acryloylpiperazin-1-yl)-2-aminoquinazolin-6-yl)-2-methoxypyridin-3-yl)-2,4-difluorobenzenesulfonamide], the 50% inhibitory concentration (IC50) in assay [1] (Table 1) turned out to be 430 nM; in assay [2] (Table 1) it was 1840 nM.

Take `C=CC(=O)N1CCN(c2nc(O)nc3ccc(-c4cnc(OC)c(NS(=O)(=O)c5ccc(F)cc5F)c4)cc23)CC1` [Example 32, N-(5-(4-(4-acryloylpiperazin-1-yl)-2-hydroxyquinazolin-6-yl)-2-methoxypyridin-3-yl)-2,4-difluorobenzenesulfonamide]: the IC50 in assay [1] (Table 1) is 2260 nM; in assay [2] (Table 1), above 5000 nM.

In the case of `CCOc1c([C@H](C)n2nc(C)c3c(N)ncnc32)cc(Cl)c(F)c1[C@@H]1CNC(=O)C1` [Parsaclisib, reference compound], the IC50 in assay [2] (Table 2) was found to be 8 nM; in assay [2] (Table 3) it was 6 nM; in assay [2] (Table 4) it was 4 nM.

As for `COc1ncc(-c2nc(N3CCOCC3)nc3c(CN4CCC(C(C)(C)O)CC4)cc(F)cc23)cc1NS(C)(=O)=O` [Linperlisib, reference compound], in assay [2] (Table 1), the half-inhibitory concentration (IC50) was found to be 18 nM.

Take `C=CC(=O)N1CCN(c2ncnc3ccc(-c4cnc(OC5CCCC5)c(NS(=O)(=O)c5ccc(F)cc5F)c4)cc23)CC1` [Example 106, N-(5-(4-(4-acryloylpiperazin-1-yl)quinazolin-6-yl)-2-(cyclopentyloxy)pyridin-3-yl)-2,4-difluorobenzenesulfonamide]: the IC50 in assay [1] (Table 2) and in assay [2] (Table 2) was 117 nM throughout.

For the molecule `C=CC(=O)N1CCN(c2nc(C#N)nc3ccc(-c4cnc(OC)c(NS(=O)(=O)c5ccc(F)cc5F)c4)cc23)CC1` [Example 31, N-(5-(4-(4-acryloylpiperazin-1-yl)-2-cyanoquinazolin-6-yl)-2-methoxypyridin-3-yl)-2,4-difluorobenzenesulfonamide], the IC50 in assay [1] (Table 1) turned out to be 149 nM; in assay [2] (Table 1), 336 nM.

Turning to `C=C(F)C(=O)N1CCN(c2ncnc3ccc(-c4cnc(OC5CCCC5)c(NS(=O)(=O)c5ccc(F)cc5F)c4)cc23)CC1` [Example 108, N-(2-(cyclopentyloxy)-5-(4-(4-(2-fluoroacryloyl)piperazin-1-yl)quinazolin-6-yl)pyridin-3-yl)-2,4-difluorobenzenesulfonamide], the IC50 in assay [1] (Table 2) was found to be 161 nM; in assay [2] (Table 2), 268 nM.

`C=CC(=O)N1CCN(c2ncnc3ccc(-c4cnc(OC)c(NS(=O)(=O)c5ccc(Cl)s5)c4)cc23)CC1` [Example 37, N-(5-(4-(4-acryloylpiperazin-1-yl)quinazolin-6-yl)-2-methoxypyridin-3-yl)-5-chlorothiophene-2-sulfonamide]: the 50% inhibitory concentration (IC50) in assay [1] (Table 1) is 1.3 nM; in assay [2] (Table 1), 20.1 nM.

Consider `CC(=O)/C=C/C(=O)N1CCN(c2ncnc3ccc(-c4cnc(O)c(NS(=O)(=O)c5ccc(F)cc5F)c4)cc23)CC1` [Example 129, (E)-2,4-difluoro-N-(2-hydroxy-5-(4-(4-(4-oxopent-2-enoyl)piperazin-1-yl)quinazolin-6-yl)pyridin-3-yl)benzenesulfonamide], for which the IC50 in assay [2] (Table 2) amounted to 142 nM.
